Test results from ChEMBL document CHEMBL2177063, “Iridoid glucosides from Nyctanthes arbortristis result in increased reactive oxygen species and cellular redox homeostasis imbalance in Leishmania parasite” (Eur J Med Chem, 2012).
The source made the active and inactive calls. No cut-off for these calls is given here.

How the values were obtained:
[1] = Cytotoxicity against human HEK293 cells assessed as cell viability at 100 uM after 48 hrs by MTT assay relative to control; format: cell-based; conditions: read-out: Activity
[2] = target: Trypanothione reductase (Leishmania donovani) (UniProt P39050); assay: Inhibition of Leishmania donovani DD8 promastigote form trypanothione reductase assessed as decrease in reduced thiol level at 3.125 uM after 48 hrs by DTNB-based spectrophotometric analysis relative to control
Trypanothione reductase (Leishmania donovani), sequence (P39050 whole entry): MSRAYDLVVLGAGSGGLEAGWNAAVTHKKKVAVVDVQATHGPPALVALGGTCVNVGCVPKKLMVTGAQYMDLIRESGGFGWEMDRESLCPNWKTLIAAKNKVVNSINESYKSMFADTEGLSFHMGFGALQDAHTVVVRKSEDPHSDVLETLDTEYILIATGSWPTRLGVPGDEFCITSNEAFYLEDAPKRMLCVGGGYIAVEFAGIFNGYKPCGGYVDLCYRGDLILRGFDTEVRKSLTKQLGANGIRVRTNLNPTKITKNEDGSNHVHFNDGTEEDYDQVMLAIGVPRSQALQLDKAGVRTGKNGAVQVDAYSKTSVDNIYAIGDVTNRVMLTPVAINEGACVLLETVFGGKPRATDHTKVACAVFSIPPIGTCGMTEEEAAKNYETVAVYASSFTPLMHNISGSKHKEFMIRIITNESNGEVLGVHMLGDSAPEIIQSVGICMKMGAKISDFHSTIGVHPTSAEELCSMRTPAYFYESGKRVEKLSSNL

[3] = target: Trypanothione reductase (Leishmania donovani) (UniProt P39050); assay: Inhibition of Leishmania donovani DD8 promastigote form trypanothione reductase assessed as decrease in reduced thiol level at 3.125 uM after 12 hrs by DTNB-based spectrophotometric analysis relative to control
[4] = tested on: Leishmania donovani; assay: Induction of oxidative stress in axenic form of Leishmania donovani DD8 assessed as increase in ROS level at 20 uM by CM-H2DCFDA-based flow cytometric analysis; format: functional, organism-based
[5] = target: Trypanothione reductase (Leishmania donovani) (UniProt P39050); assay: Inhibition of Leishmania donovani DD8 axenic form trypanothione reductase assessed as decrease in reduced thiol level at 3.125 uM after 48 hrs by DTNB-based spectrophotometric analysis relative to control
[6] = target: Trypanothione reductase (Leishmania donovani) (UniProt P39050); assay: Inhibition of Leishmania donovani DD8 axenic form trypanothione reductase assessed as decrease in reduced thiol level at 3.125 uM after 12 hrs by DTNB-based spectrophotometric analysis relative to control
[7] = tested on: Leishmania donovani; assay: Antileishmanial activity against axenic form of Leishmania donovani DD8 after 48 hrs by MTT assay; format: functional, organism-based; conditions: DD8, 48 h
[8] = tested on: Leishmania donovani; assay: Induction of apoptosis in promastigote form of Leishmania donovani DD8 assessed as early apoptotic cells at 20 uM after 24 hrs by FITC-annexinV/PI-based flow cytometric analysis (reference value: 2.61%); format: functional
[9] = tested on: Leishmania donovani; assay: Induction of oxidative stress in promastigote form of Leishmania donovani DD8 assessed as increase in ROS level at 20 uM by CM-H2DCFDA-based flow cytometric analysis; format: functional, organism-based
[10] = tested on: Leishmania donovani; assay: Antileishmanial activity against amastigote form of Leishmania donovani DD8 infected in mouse J774A1 cells at 10 uM after 48 hrs by ethidium bromide/acridine orange staining-based fluorescence microscopic analysis; format: functional, organism-based; conditions: J774.A1
[11] = tested on: Leishmania donovani; assay: Antileishmanial activity against amastigote form of Leishmania donovani DD8 infected in mouse J774A1 cells at 100 uM after 48 hrs by ethidium bromide/acridine orange staining-based fluorescence microscopic analysis; format: functional, organism-based; conditions: J774.A1
[12] = tested on: Leishmania donovani; assay: Induction of apoptosis in promastigote form of Leishmania donovani DD8 assessed as late apoptotic cells at 20 uM after 24 hrs by FITC-annexinV/PI-based flow cytometric analysis (reference value: 3.4%); format: functional
[13] = tested on: Leishmania donovani; assay: Induction of necrosis in promastigote form of Leishmania donovani DD8 assessed as necrotic cells at 20 uM after 24 hrs by FITC-annexinV/PI-based flow cytometric analysis (reference value: 1.31%); format: functional
[14] = tested on: Leishmania donovani; assay: Induction of apoptosis in promastigote form of Leishmania donovani DD8 assessed as viable cells at 20 uM after 24 hrs by FITC-annexinV/PI-based flow cytometric analysis (reference value: 92.68%); format: functional
[15] = tested on: Leishmania donovani; assay: Induction of oxidative stress in promastigote form of Leishmania donovani DD8 assessed as increase in ROS level at 5 to 20 uM up to 48 hrs by CM-H2DCFDA-based fluorimetric analysis; format: functional, organism-based
[16] = tested on: Leishmania donovani; assay: Induction of oxidative stress in amastigote form of Leishmania donovani DD8 assessed as increase in ROS level at 5 to 20 uM up to 48 hrs by CM-H2DCFDA-based fluorimetric analysis; format: functional, organism-based
[17] = target: Trypanothione reductase (Leishmania donovani) (UniProt P39050); assay: Inhibition of Leishmania donovani DD8 promastigote form trypanothione reductase assessed as decrease in reduced thiol level at 100 uM after 48 hrs by DTNB-based spectrophotometric analysis relative to control
[18] = tested on: J774.A1; assay: Cytotoxicity against mouse J774A1 cells at 1 to 100 uM after 48 hrs by MTT assay; format: cell-based; conditions: j774.a1, 48 h
[19] = tested on: Leishmania donovani; assay: Antileishmanial activity against promastigote form of Leishmania donovani DD8 after 48 hrs by MTT assay; format: functional, organism-based; conditions: DD8, 48 h
[20] = tested on: Leishmania donovani; assay: Antileishmanial activity against promastigote form of Leishmania donovani DD8 assessed as cell death at 200 uM from 12 to 48 hrs by ethidium bormide/acridine orange staining-based fluorescence microscopic analysis; format: functional, organism-based
[21] = target: Trypanothione reductase (Leishmania donovani) (UniProt P39050); assay: Inhibition of Leishmania donovani DD8 axenic form trypanothione reductase assessed as decrease in reduced thiol level at 100 uM after 12 hrs by DTNB-based spectrophotometric analysis relative to control
[22] = Cytotoxicity against human HEK293 cells assessed as cell viability at 4 uM after 48 hrs by MTT assay relative to control; format: cell-based; conditions: read-out: Activity
[23] = target: Trypanothione reductase (Leishmania donovani) (UniProt P39050); assay: Inhibition of Leishmania donovani DD8 axenic form trypanothione reductase assessed as decrease in reduced thiol level at 100 uM after 48 hrs by DTNB-based spectrophotometric analysis relative to control
[24] = tested on: Leishmania donovani; assay: Induction of oxidative stress in promastigote form of Leishmania donovani DD8 assessed as change in cell surface topology at 20 uM by CM-H2DCFDA-based flow cytometric analysis; format: functional, organism-based
[25] = target: Trypanothione reductase (Leishmania donovani) (UniProt P39050); assay: Inhibition of Leishmania donovani DD8 promastigote form trypanothione reductase assessed as decrease in reduced thiol level at 100 uM after 12 hrs by DTNB-based spectrophotometric analysis relative to control
[26] = tested on: Leishmania donovani; assay: Induction of oxidative stress in axenic form of Leishmania donovani DD8 assessed as change in cell surface topology at 20 uM by CM-H2DCFDA-based flow cytometric analysis; format: functional, organism-based

Structure (SMILES)	viability at 48 h, 100 µM [1] [%]	inhibition [2] [%]	inhibition [3] [%]	Activity [4]	inhibition [5] [%]	inhibition [6] [%]	IC50 [7] [µM]	Activity [8] [%]	Activity [9]	Activity [10]	Activity [11]	Activity [12] [%]	Activity [13] [%]	Activity [14] [%]	Activity [15]	Activity [16]	inhibition [17] [%]	Activity [18]	IC50 [19] [µM]	Activity [20]	other results
COC(=O)C1=CO[C@@H](O[C@@H]2O[C@H](CO)[C@@H](O)[C@H](O)[C@H]2O)[C@@H]2[C@@H](C)[C@@H](OC(=O)/C=C/c3ccc(OC)cc3)[C@@H](O)[C@H]12 [ARBORTRISTOSIDE A]	71.2	63.7	92.5	Active	73.4	97.9	7.26	26.3	Active	Active	Active	2.13	10.33	61.24	Active	Active	33.8	Non-toxic	3.26	Active	inhibition [21]: 65.8%; viability at 48 h, 4 µM [22]: 95.5%; inhibition [23]: 41.9%; Activity [24]: Active; inhibition [25]: 60.1%; Activity [26]: Active
COC(=O)C1=CO[C@@H](O[C@@H]2O[C@H](CO)[C@@H](O)[C@H](O)[C@H]2O)[C@@H]2[C@@H](CO)[C@@H](OC(=O)/C=C/c3ccc(O)c(O)c3)[C@@H](O)[C@H]12 [ARBORTRISTOSIDE B]	54.8	67.9	92.6	Active	77.5	96.9	7.63	31.04	Active	Active	Active	2.96	13.52	52.48	Active	Active	41.9	Non-toxic	3.5	Active	inhibition [21]: 67.9%; viability at 48 h, 4 µM [22]: 93.6%; inhibition [23]: 46.9%; Activity [24]: Active; inhibition [25]: 63.6%; Activity [26]: Active
COC(=O)C1=CO[C@@H](O[C@@H]2O[C@H](CO)[C@@H](O)[C@H](O)[C@H]2O)[C@@H]2[C@@H](C)[C@@H](OC(=O)/C=C/c3ccc(O)cc3)[C@@H](O)[C@H]12 [ARBORTRISTOSIDE C]	48.6	78.9	95.3	Active	82.8	97.7	9	36.59	Active	Active	Active	2.51	10	50.9	Active	Active	46.9	Non-toxic	5.02	Active	inhibition [21]: 67.8%; viability at 48 h, 4 µM [22]: 89.6%; inhibition [23]: 51.7%; Activity [24]: Active; inhibition [25]: 62.7%; Activity [26]: Active
